Patent US8636951B2, “Bio-terrorism counteraction using ozone and hydrogen peroxide” (priority 2010, dated 2014)

Tested on: Bacillus subtilis
Assay type: cell-based

Structure (SMILES) | A: count of viable Bacillus colonies at 10 dilution | B: count of viable Bacillus colonies at 100 dilution | C: count of viable Bacillus colonies at 1000 dilution | D: count of viable Bacillus colonies at 10000 dilution | Log10 RED
OO [hydrogen peroxide] | TNTCT | NTC | 210 | 12 | 0 Log10
O=[O+][O-] [ozone] | TNTCT | NTC | – | – | –
